This note sets out measurements from US8609083B1, “Method for controlling fungal pathogen with bacterial metabolite” (The United States of America, as represented by the …, priority 2007, dated 2013).

The subject of this assay is F. effusum. As to the kind of experiment: Suppression of F. effusum sporulation on pecan terminal shoots. Format: in vivo, Fusicladosporium effusum. As to conditions: 72 hours at 25° C.; for suppression of F. effusum sporulation, Abbott's formula relative to the acetone control: undiluted metabolites or fungicide products. The procedure:
Dormant twigs with spore lesion constitute a primary source of scab infestation in pecan orchards. Scab disbursal via twig lesion sporulation occurs in early spring when temperatures are optimal. […] The shoots were selected for uniformity in diameter, cut into 5 cm segments, and placed into 1.5×10 cm test tubes.
Pecan shoots were sonicated for 30 minutes in 6 ml of 1% TWEEN 20 solution (polyoxyehtylene (20) sorbitan monolaurate). The number of spores released per lesion was counted via a hemocytometer. […]. A portion of the shoots were sonicated and counted prior to exposure to fungicidal treatments to verify that the shoots had not sporulated. The initial shoots lesions were designated as the baseline treatment.
Shoots were exposed to the following fungicidal treatments: undiluted metabolites derived from either P. luminescens (Hb) or X. bovienii (SN), and three chemical fungicide products used for control of F. effusum, i.e., dodine (Dodine 65W, 65% active ingredient, wettable powder, Platte Chemical Co. Greeley, Colo.), fenbuconazole (ENABLE 2F, 240 grams/liter active ingredient, flowable, Dow AgroSciences, Indianapolis Ind.), and triphenyltin hydroxide (SUPERTIN, 80% active ingredient, wettable powder, Griffin L. L. C., Valdosta, Ga.). The bacteria P. luminescens (Hb) was isolated from Heterorhabditis bacteriophora Poinar. The bacteria X. bovienii (SN) was isolated from Steinernema feltiae (Filipjev).
The shoots were also exposed to a water control and acetone control. Acetone was used as a solvent for the metabolites. The treatments were applied using an airbrush sprayer. The shoots were incubated at 25° C. for 72 hours, and exposed to sonification and quantification of spores. Ten replicate shoots for each treatment and the experiment was repeated once.

As to `CCCCCCCCCCCCNC(=N)N` [dodine], the “suppression of F. effusum sporulation, Abbott's formula relative to the acetone control” value is reported as 49.6%.
Consider `[OH][Sn]([c]1ccccc1)([c]1ccccc1)[c]1ccccc1` [triphenyltin hydroxide], for which the “sporulation of F. effusum on pecan shoots relative to the acetone or water control” value (FIG. 3) is recorded as “No effect was detected”.
As to `N#CC(CCc1ccc(Cl)cc1)(Cn1cncn1)c1ccccc1` (stereo not drawn) [fenbuconazole], the “suppression of F. effusum sporulation, Abbott's formula relative to the acetone control” value came out at 80.4%.
